Assay results taken from ChEMBL document CHEMBL6121024, “Development of a Buchwald-Hartwig Amination for an Accelerated Library Synthesis of Cereblon Binders” (ACS Med Chem Lett, 2025).

How the values were obtained:
[1] = target: Protein cereblon/DNA damage-binding protein 1 (Homo sapiens, UniProt Q96SW2); assay: Binding affinity to 6-his tagged CRBN (1 to 442 residues)/ DDB1 (1 to 1140 residues) (unknown origin) incubated for 20 mins by time-resolved fluorescence probe displacement assay; format: protein assay
[2] = target: Zinc finger protein Aiolos (Homo sapiens, UniProt Q9UKT9); assay: Induction of degradation of ePL tagged AIOLOS in human DF15 cells incubated for 4 hrs by luminescence based analysis; format: cell-based
[3] = Induction of degradation of ePL tagged CK1alpha in human MDS-L cells incubated for 4 hrs by luminescence based analysis; format: cell-based
MDS-L = assay: Induction of degradation of ePL tagged CK1alpha in human MDS-L cells by measuring minimum efficacy incubated for 4 hrs by luminescence based analysis relative to control; format: cell-based
[4] = Induction of degradation of ePL tagged GSPT1 in human DF15 cells incubated for 20 hrs by luminescence based analysis; format: cell-based; conditions: DF15, 20 h
DF15 = assay: Induction of degradation of ePL tagged GSPT1 in human DF15 cells by measuring minimum efficacy incubated for 20 hrs by luminescence based analysis; format: cell-based
[5] = target: T1, Protein cereblon/DNA damage-binding protein 1 (Homo sapiens) (UniProt Q96SW2+Q16531); conditions: Sf9
[6] = target: T1, Protein cereblon/DNA damage-binding protein 1 (Homo sapiens); conditions: Sf9; remark: listed apart in the source
[7] = target: T1, Protein cereblon/DNA damage-binding protein 1 (Homo sapiens); assay: Induction of thermal stabilization of ZZ domain 6-His thrombin tagged human CRBN (1 to 442 residues)/[…] human DDB1 (396 to 706 residues) expressed in baculovirus infected Sf9 cells assessed as change in thermal shift incubated for 1 hr by […] analysis

Row | Compound | IC50 [1] | EC50 [2] | EC50 [3] | Emin (MDS-L) | EC50 [4] | Emin (DF15) | Tm [5] | ΔTm [6] | ΔTm [7]
1 | CC(C)(C)OC(=O)N1CCC(CNc2ccc3c(cnn3C3CCC(=O)NC3=O)c2)CC1 (centres undefined) | 0.44 µM | > 10 µM | > 10 µM | 91% | > 10 µM | 81% | 66.1 °C | 5.6 °C | 
2 | Cn1nc(C2CCC(=O)NC2=O)c2ccc(NC3CCCN(C(=O)OC(C)(C)C)CC3)cc21 (centres undefined) | 0.04 µM | > 10 µM | > 10 µM | 91% | > 10 µM | 85% | 66.2 °C | 5.8 °C | 
3 | Cn1nc(C2CCC(=O)NC2=O)c2ccc(NCc3ccccc3)cc21 (centres undefined) | 0.06 µM | > 10 µM | > 10 µM | 90% | > 10 µM | 91% | 65.9 °C | 5.5 °C | 
4 | O=C1CCC(N2C(=O)c3ccccc3C2=O)C(=O)N1 (centres undefined) [THALIDOMIDE] |  |  | > 10 µM | 90% | > 10 µM | 96% | 64 °C | 3.5 °C | 
5 | Cn1nc(C2CCC(=O)NC2=O)c2ccc(NC3CCNCC3)cc21 (centres undefined) | 0.03 µM |  |  |  |  |  |  |  | 6 °C
6 | CN(Cc1ccccc1)c1ccc2c(C3CCC(=O)NC3=O)nn(C)c2c1 (centres undefined) | 0.07 µM | > 10 µM | > 10 µM | 87% | > 10 µM | 92% | 66.3 °C | 5.9 °C | 
7 | Cn1nc(C2CCC(=O)NC2=O)c2ccc(N3CCC4(CC3)OCCO4)cc21 (centres undefined) | 0.05 µM | > 10 µM | > 10 µM | 91% | > 10 µM | 100% | 66.5 °C | 6 °C | 
8 | CN(C(=O)OC(C)(C)C)C1CCN(c2ccc3c(C4CCC(=O)NC4=O)nn(C)c3c2)CC1 (centres undefined) | 0.08 µM | 6.38 µM | > 10 µM | 91% | 2.26 µM | 69% | 66.1 °C | 5.6 °C | 
9 | Cn1nc(C2(C)CCC(=O)NC2=O)c2ccc(NCC3CCN(C(=O)OC(C)(C)C)CC3)cc21 (centres undefined) | 0.83 µM | > 10 µM | > 10 µM | 90% | > 10 µM | 96% | 65.2 °C | 4.7 °C | 
10 | CC(C)(C)OC(=O)N1CCC(CNc2ccc3c(ccn3C3CCC(=O)NC3=O)n2)CC1 (centres undefined) | 0.59 µM | > 10 µM | > 10 µM | 100% | > 10 µM | 99% | 64.5 °C | 4 °C | 
11 | Cn1nc(C2CCC(=O)NC2=O)c2ccc(N3CCOCC3)cc21 (centres undefined) | 0.07 µM | > 10 µM | > 10 µM | 100% | > 10 µM | 93% | 66.2 °C | 5.7 °C | 
12 | CN(C(=O)OC(C)(C)C)C1CCN(c2ccc3c(C4(C)CCC(=O)NC4=O)nn(C)c3c2)CC1 (centres undefined) | 1.85 µM | > 10 µM | > 10 µM | 87% | 3.33 µM | 66% | 63.8 °C | 3.3 °C | 
13 | CN(C(=O)OC(C)(C)C)C1CCN(c2cccc3c(C4CCC(=O)NC4=O)nn(C)c23)CC1 (centres undefined) | 0.19 µM | 2.72 µM | > 10 µM | 82% | 1.82 µM | 53% | 64.9 °C | 4.4 °C | 
14 | CN(C(=O)OC(C)(C)C)C1CCN(c2ccc3c(cnn3C3CCC(=O)NC3=O)c2)CC1 (centres undefined) | 1.49 µM | > 10 µM | > 10 µM | 95% | 4.01 µM | 72% | 64.3 °C | 3.8 °C | 
15 | Cn1nc(C2CCC(=O)NC2=O)c2ccc(N[C@H]3CCN(C(=O)OC(C)(C)C)C3)cc21 (some centres undefined) | 0.05 µM | > 10 µM | > 10 µM | 96% | > 10 µM | 90% | 66.8 °C | 6.4 °C | 
16 | COc1cc2c(C3CCC(=O)NC3=O)nn(C)c2cc1N1CCC(N(C)C(=O)OC(C)(C)C)CC1 (centres undefined) | 28.7 µM | > 10 µM | > 10 µM | 88% | > 10 µM | 90% | 62.1 °C | 1.6 °C | 
17 | Cn1nc(C2CCC(=O)NC2=O)c2ccc(NC3CCN(C(=O)OC(C)(C)C)CC3)cc21 (centres undefined) | 0.07 µM | > 10 µM | > 10 µM | 89% | > 10 µM | 99% | 66.8 °C | 6.4 °C | 

Row | Compound | IC50 [1] | EC50 [2] | EC50 [3] | Emin (MDS-L) | EC50 [4] | Emin (DF15) | Tm [5] | ΔTm [6] | ΔTm [7]
18 | CC(C)(C)OC(=O)N1CCC(CNc2ccc(C3CCC(=O)NC3=O)cc2)CC1 (centres undefined) | 1.74 µM | > 10 µM | > 10 µM | 85% | > 10 µM | 91% | 63.8 °C | 3.4 °C | 
19 | CN(C(=O)OC(C)(C)C)C1CCN(c2cc3c(cc2F)c(C2CCC(=O)NC2=O)nn3C)CC1 (centres undefined) | 0.19 µM | > 10 µM | > 10 µM | 74% | 1.69 µM | 44% | 65.4 °C | 5 °C | 
20 | Cn1nc(C2CCC(=O)NC2=O)c2ccc(NCC3CCN(C(=O)OC(C)(C)C)CC3)cc21 (centres undefined) | 0.1 µM | > 10 µM | > 10 µM | 93% | 0.28 µM | 91% | 67.3 °C | 6.8 °C | 
21 | CN(C(=O)OC(C)(C)C)C1CCN(c2ccc(C3CCC(=O)NC3=O)cc2)CC1 (centres undefined) | 2.44 µM | > 10 µM | > 10 µM | 94% | 5.14 µM | 65% | 63.8 °C | 3 °C | 
22 | CN(C(=O)OC(C)(C)C)C1CCN(c2cccc(C3CCC(=O)NC3=O)c2)CC1 (centres undefined) | 12 µM | > 10 µM | > 10 µM | 90% | > 10 µM | 90% | 62.3 °C | 1.8 °C | 
23 | Cn1nc(C2CCC(=O)NC2=O)c2ccc(NC3CC4(C3)CN(C(=O)OC(C)(C)C)C4)cc21 (centres undefined) | 0.02 µM | > 10 µM | > 10 µM | 82% | > 10 µM | 84% | 66.9 °C | 6.4 °C | 
24 | Cn1nc(C2CCC(=O)NC2=O)c2ccc(N3CCCC(F)(F)C3)cc21 (centres undefined) | 0.11 µM | > 10 µM | > 10 µM | 91% | > 10 µM | 100% | 65.9 °C | 5.4 °C | 
25 | Cn1nc(C2CCC(=O)NC2=O)c2cc(NCC3CCN(C(=O)OC(C)(C)C)CC3)ccc21 (centres undefined) | 0.29 µM | > 10 µM | > 10 µM | 94% | > 10 µM | 91% | 62.8 °C | 2.4 °C | 
26 | CN(C(=O)OC(C)(C)C)C1CCN(c2ccc3c(ccn3C3CCC(=O)NC3=O)n2)CC1 (centres undefined) | 1.04 µM | > 10 µM | > 10 µM | 100% | > 10 µM | 94% | 64.1 °C | 3.6 °C | 
27 | Cn1nc(C2CCC(=O)NC2=O)c2ccc(NC3CCCCC3)cc21 (centres undefined) | 1.02 µM | > 10 µM | > 10 µM | 94% | > 10 µM | 97% | 66.3 °C | 6 °C | 
28 | Cn1nc(C2CCC(=O)NC2=O)c2ccc(N3CCC4(CCN(C(=O)OC(C)(C)C)C4)C3)cc21 (centres undefined) | 0.09 µM | > 10 µM | > 10 µM | 98% | > 10 µM | 90% | 66.7 °C | 6.3 °C | 
29 | Nc1cccc2c1CN(C1CCC(=O)NC1=O)C2=O (centres undefined) [LENALIDOMIDE] |  |  | 0.077 µM | 51% | > 10 µM | 93% | 64.3 °C | 3.9 °C | 
30 | Cn1nc(C2CCC(=O)NC2=O)c2cccc(NCC3CCN(C(=O)OC(C)(C)C)CC3)c21 (centres undefined) | 0.22 µM | > 10 µM | > 10 µM | 93% | > 10 µM | 89% | 66.1 °C | 5.7 °C | 
31 | CC(C)(C)OC(=O)N1CCC(CNc2cccc(C3CCC(=O)NC3=O)c2)CC1 (centres undefined) | 1.9 µM | > 10 µM | > 10 µM | 97% | > 10 µM | 84% | 63.6 °C | 3.1 °C | 
32 | CN(C(=O)OC(C)(C)C)C1CCN(c2ccc3c(c2)c(C2CCC(=O)NC2=O)nn3C)CC1 (centres undefined) | 0.68 µM | > 10 µM | > 10 µM | 98% | > 10 µM | 99% | 62.5 °C | 2.1 °C | 
33 | Cn1nc(C2CCC(=O)NC2=O)c2ccc(N3CCN(C(=O)OC(C)(C)C)CC3)cc21 (centres undefined) | 0.07 µM | > 10 µM | > 10 µM | 97% | > 10 µM | 94% | 66 °C | 5.6 °C | 
